The target of assay [1] is T1, delF508-CFTR (Homo sapiens, UniProt P13569, DEL508-508).
T1 construct: functional activity of the CFTR channel (Chloride ion transport) in patient derived primary human bronchial epithelial cells; host or cells: patient-derived primary human bronchial epithelial cells (HBECs), delF508-CFTR
As to the kind of experiment: delF508-CFTR functional activity in primary human bronchial epithelial cells (HBECs), Multi-Transepithelial Clamp Circuit (MTECC-24) assay, equivalent short circuit current. The class given is cell-based. The conditions noted are these: primary CF HBECs; for MTECC24 CFHBEC-Amax %: relative to reference combination 2 μM 3-(6-(1-(2,2-difluorobenzo[d][1,3]dioxol-5-yl)cyclopropane-1-carboxamido)-3-methylpyridin-2-yl)benzoic acid (24 h) + 0.5 μM N-(2,4-di-tert-butyl-5-hydroxyphenyl)-4-oxo-1,4-dihydroquinoline-3-carboxamide; for EC50: test compound added 24 h before assay, potentiator (S)-3-amino-6-methoxy-N-(3,3,3-trifluoro-2-hydroxy-2-methylpropyl)-5-(trifluoromethyl)picolinamide present at assay, mean of at least two replicates, read-out: MTECC24 CFHBEC-EC50. From the text:
Measurement of delF508-CFTR Functional Activity in Primary Human Bronchial Epithelial Cells (HBECs) Using Multi-Transepithelial Clamp Circuit (MTECC-24) Assay
This assay measures the functional activity of the CFTR channel (Chloride ion transport) in patient derived primary human bronchial epithelial cells with forskolin activation and in the presence of the CFTR corrector wherein the corrector is a compound of the invention and the potentiator is (S)-3-amino-6-methoxy-N-(3,3,3-trifluoro-2-hydroxy-2-methylpropyl)-5-(trifluoromethyl)picolinamide.
Primary human delF508-CFTR bronchial epithelial cells were purchased from Asterand and cultured according to previously established methods (Fulcher et al. (2005) Methods Mol Med 107: 183-206). Briefly, vendor supplied cells were rapidly defrosted and added to a T175 flask in 50 mL growth media (Lonza BEBM media with Lonza BEGM singlequots). Media was replaced after 24 h and then cells were fed every other day until cells were 80-90% confluent, at which point cells were cryopreserved. These P1 vials were thawed at 37° C. as needed and added to T175 flasks in 50 mL growth media at 5×10^5 cells/flask. Media was replaced after 24 h, and then cells were fed every other day until 80-90% confluent. Cells were lifted with 5 mL Accutase at 37° C. for 5 minutes, centrifuged at 1000 rpms for 5 min (300 g), and resuspended in differentiation media (50% BEBM in DMEM, BEGM singlequots, all trans retinoic acid (5×10·8M)). Cells were then counted and cell suspension was added to collagen coated inserts at 3×10^4 cells/insert in 0.15 mL with 0.5 mL differentiation media on the basolateral side.
Apical and basolateral media were replaced on alternate days, and following day 7 (or when confluent plus 2 days), air liquid interface was established for approximately two weeks by removal of apical media. One day prior to use on the MTECC24 system (EP-Devices, EP Design, Belgium), 0.15 mL of warmed (37° C.) PBS was added to the apical surface of the cultures and returned to humidifier (37° C., 5% CO2 incubator) for 30 min before aspirating the apical surface to remove any mucus.
Compound treatments were then prepared. Compound dilutions, typically a 10 point concentration response with 1 in 3 dilution steps, were made in 100% DMSO before dilution 1 in 1000 into differentiation medium with a final DMSO concentration of 0.1% or 0.2% for the study. Compound containing medium was then transferred into the wells of a 24 well plate at 0.5 mL per well and warmed for 30 min in a 37° C. incubator prior to transferring washed inserts into the compound containing plates. Cells were incubated in compound containing medium (basolateral only) for 24 h prior to measurement in the MTECC24 system.
Following 24 hr treatment, compound dilutions were prepared again, diluted 1 in 1000 into 37° C. assay medium (F-12 Coon's modified, 20 mM HEPES pH7.4 with TRIS Base, No FCS or bicarbonate). Cells which were treated for 24 h with test compound were then transferred into plates containing 0.75 mL compound treatment in assay medium (basolateral) and 0.25 mL of the compound containing assay medium was added to the apical surface. The plates were then transferred to the heated plate compartments of the MTECC24 system for 45 min prior to measurements (this can also be done in a non-CO2 37° C. humidified incubator). Basolateral temperature should not exceed 36.5° C. and apical temperature should be approximately 35.5° C.
Modulators were added sequentially as follows while the MTECC24 instrument recorded the equivalent short circuit current (Ieq)
Prior to dilution into F-12 medium the stocks are as follows: Amiloride stock is 10 mM in H2O
Forskolin Stock is 10 mM in 100% DMSO
(S)-3-amino-6-methoxy-N-(3,3,3-trifluoro-2-hydroxy-2-methylpropyl)-5-(trifluoromethyl)picolinamide is 0.5 mM stock in 100% DMSO INH-172 (4-[[4-Oxo-2-thioxo-3-[3-trifluoromethyl)phenyl]-5-thiazolidinylidene]methyl]benzoic acid) stock is 30 mM in 100% DMSO […]

The target of assay [2] is T2, delF508-CFTR-HRP (Homo sapiens, UniProt P13569, DEL508-508).
T2 construct: expressed in transfected cells
T2 sequence (P13569 with tags, fused parts or gaps DEL508-508): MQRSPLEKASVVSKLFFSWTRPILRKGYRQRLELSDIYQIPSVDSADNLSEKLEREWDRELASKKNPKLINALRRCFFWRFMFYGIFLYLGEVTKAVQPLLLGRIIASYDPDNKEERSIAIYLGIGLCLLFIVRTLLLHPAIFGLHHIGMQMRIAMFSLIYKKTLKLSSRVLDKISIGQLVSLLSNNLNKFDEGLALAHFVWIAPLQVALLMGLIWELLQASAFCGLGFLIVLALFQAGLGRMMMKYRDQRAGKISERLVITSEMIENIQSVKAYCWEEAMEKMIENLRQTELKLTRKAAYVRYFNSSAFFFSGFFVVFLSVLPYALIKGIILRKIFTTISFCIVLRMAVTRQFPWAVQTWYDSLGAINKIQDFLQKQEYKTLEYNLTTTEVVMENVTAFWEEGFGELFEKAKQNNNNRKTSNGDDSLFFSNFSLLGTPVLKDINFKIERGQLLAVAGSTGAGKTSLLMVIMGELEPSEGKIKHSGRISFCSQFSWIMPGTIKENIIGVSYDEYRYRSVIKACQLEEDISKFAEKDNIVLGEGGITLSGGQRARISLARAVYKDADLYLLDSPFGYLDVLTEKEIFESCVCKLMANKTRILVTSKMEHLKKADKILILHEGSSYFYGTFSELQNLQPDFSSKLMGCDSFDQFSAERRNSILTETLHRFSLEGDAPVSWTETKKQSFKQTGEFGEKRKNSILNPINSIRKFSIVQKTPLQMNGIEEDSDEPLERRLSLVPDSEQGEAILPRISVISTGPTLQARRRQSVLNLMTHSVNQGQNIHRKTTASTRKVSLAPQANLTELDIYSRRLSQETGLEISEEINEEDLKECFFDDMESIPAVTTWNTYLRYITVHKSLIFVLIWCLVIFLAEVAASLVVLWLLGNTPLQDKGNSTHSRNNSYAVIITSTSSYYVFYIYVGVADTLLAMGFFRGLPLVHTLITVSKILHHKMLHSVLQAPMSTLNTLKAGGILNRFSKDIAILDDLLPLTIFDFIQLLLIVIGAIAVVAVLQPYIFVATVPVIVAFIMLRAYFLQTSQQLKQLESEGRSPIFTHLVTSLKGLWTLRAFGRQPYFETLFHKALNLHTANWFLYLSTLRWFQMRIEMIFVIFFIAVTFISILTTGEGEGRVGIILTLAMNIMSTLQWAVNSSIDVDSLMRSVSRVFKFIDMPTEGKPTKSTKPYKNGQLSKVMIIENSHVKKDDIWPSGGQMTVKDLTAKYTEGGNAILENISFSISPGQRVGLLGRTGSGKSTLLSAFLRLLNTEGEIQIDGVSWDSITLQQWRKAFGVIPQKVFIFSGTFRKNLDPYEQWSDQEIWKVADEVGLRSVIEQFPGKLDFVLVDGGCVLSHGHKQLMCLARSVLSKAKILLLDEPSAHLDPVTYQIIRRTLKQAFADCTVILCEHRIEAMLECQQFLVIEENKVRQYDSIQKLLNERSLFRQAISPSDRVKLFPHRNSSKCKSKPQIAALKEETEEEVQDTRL
Description: Measurement of delF508-CFTR-HRP surface expression in CFBE41o- cells (HRP luminescence).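 As to DelF508-CFTR-HRP Amax %: percent efficacy relative to a reference CFTR corrector compound.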 The class given is cell-based. The settings on record: for Emax: CFBE41o-, read-out: DelF508-CFTR-HRP Amax %; for EC50: mean of at least two replicates. In outline:
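Stably transfected CFBE41o- cells carrying HRP in the fourth extracellular loop of delF508-CFTR, induced with 500 ng/mL doxycycline for 48 h, then compound-treated 24 h at 37° C (10-point, 3-fold, top 10 μM). Surface HRP detected by luminescent substrate; EC50 from logistic fit, triplicates, normalized to lowest-concentration median.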

T1 sequence (P13569 with tags, fused parts or gaps DEL508-508): as above

Regarding `O=C(NS(=O)(=O)c1cccc(N2CC(O)C2)n1)C1(Oc2cc(Cl)ccc2C2CCCCC2)CC1` [Example 2-57, 1-(5-Chloro-2-cyclohexylphenoxy)-N-((6-(3-hydroxyazetidin-1-yl)pyridin-2-yl)sulfonyl)cyclopropane-1-carboxamide], in assay [1], the “MTECC24 CFHBEC-Amax %” value is on record as 102% and the EC50 – broadly, the concentration needed to bring the measured effect to its halfway point – was determined as 0.012 µM. In addition, in assay [2], the Emax stood at 328% and the EC50 worked out at 3.08 µM.

`O=C(NS(=O)(=O)c1cccc(N2CC[C@H](O)C2)n1)C1(Oc2cc(Cl)ccc2N2CC3CCCC3C2)CC1` (stereo partly drawn) [Example 9-24, 1-(5-Chloro-2-(hexahydrocyclopenta[c]pyrrol-2(1H)-yl)phenoxy)-N-((6-((S)-3-hydroxypyrrolidin-1-yl)pyridin-2-yl)sulfonyl)cyclopropanecarboxamide]: in assay [1], the “MTECC24 CFHBEC-Amax %” value is recorded as 135.8% and the concentration for a half-maximal effect (EC50) is 0.389 µM. In assay [2], the Emax was 641% and the midpoint of the response, the EC50, lay at 2.17 µM.

Turning to `Cc1ccc(C2CCCCC2)c(OC2(C(=O)NS(=O)(=O)c3cccc(N4CC5(CCN5C(=O)OC(C)(C)C)C4)n3)CC2)c1` [Example 2-30, Tert-butyl 6-(6-(N-(1-(2-cyclohexyl-5-methylphenoxy)cyclopropanecarbonyl)sulfamoyl)pyridin-2-yl)-1,6-diazaspiro[3.3]heptane-1-carboxylate], in assay [1], the “MTECC24 CFHBEC-Amax %” value was 69% and the EC50 is 0.023 µM. In addition, in assay [2], the Emax was found to be 243% and the EC50 is 1.79 µM.

For `Cc1ccc(C2CCCC(F)(F)C2)c(OC2(C(=O)NS(=O)(=O)c3cccc(N)n3)CC2)c1` (centres unmarked) [Example 1-5, N-((6-Aminopyridin-2-yl)sulfonyl)-1-(2-(3,3-difluorocyclohexyl)-5-methylphenoxy)cyclopropane-1-carboxamide], in assay [1], the “MTECC24 CFHBEC-Amax %” value was 94% and the EC50 is 0.312 µM. Also, in assay [2], the Emax is 179% and the EC50 came to 3.96 µM.

Regarding `C[C@@H](CO)Nc1cccc(S(=O)(=O)NC(=O)C2(Oc3cc(F)ccc3C3CCC(F)(F)CC3)CC2)n1` [Example 3-2], in assay [1], the “MTECC24 CFHBEC-Amax %” value was 48% and the EC50 was found to be 0.371 µM. For the same molecule, in assay [2], the Emax was 172% and the midpoint of the response, the EC50, lay at 4.42 µM.

Take `O=C(NS(=O)(=O)c1cccc(N2CC[C@H](O)C2)n1)C1(Oc2cc(Cl)ccc2N2CC3(CCCCC3)C2)CC1` [Example 9-1, (S)-1-(5-chloro-2-(2-azaspiro[3.5]nonan-2-yl)phenoxy)-N-((6-(3-hydroxypyrrolidin-1-yl)pyridin-2-yl)sulfonyl)cyclopropanecarboxamide]: in assay [1], the “MTECC24 CFHBEC-Amax %” value stood at 206.5% and the EC50 was determined as 0.294 µM. Besides, in assay [2], the Emax is 647% and the response was half-maximal at 1.06 µM (EC50).

As for `O=C(NS(=O)(=O)c1cccc(N2CC[C@H](O)C2)n1)C1(Oc2cc(Cl)ccc2N2CCC3(CCCCC3)CC2)CC1` [Example 9-14, (S)-1-(5-Chloro-2-(3-azaspiro[5.5]undecan-3-yl)phenoxy)-N-((6-(3-hydroxypyrrolidin-1-yl)pyridin-2-yl)sulfonyl)cyclopropanecarboxamide], in assay [1], the “MTECC24 CFHBEC-Amax %” value is on record as 170.7% and the EC50 came to 0.454 µM. In assay [2], the Emax stood at 279% and it took 0.7 µM to reach a half-maximal effect (EC50).

As to `Cc1ccc(-c2ccccc2C(F)(F)F)c(OC2(C(=O)NS(=O)(=O)c3cccc(N4CC[C@H](O)C4)n3)CC2)c1` [Example 5-14, (S)—N-((6-(3-Hydroxypyrrolidin-1-yl)pyridin-2-yl)sulfonyl)-1-((4-methyl-2′-(trifluoromethyl)-[1,1′-biphenyl]-2-yl)oxy)cyclopropane-1-carboxamide], in assay [1], the “MTECC24 CFHBEC-Amax %” value amounted to 43% and the EC50 was 0.05 µM. Also, in assay [2], the Emax was 196% and the EC50 is 2.15 µM.

Turning to `Cc1ccc(C2CCCCC2)c(OC2(C(=O)NS(=O)(=O)c3cccc(N4CCOC[C@H]4C)n3)CC2)c1` [Example 2-26, (R)-1-(2-Cyclohexyl-5-methylphenoxy)-N-((6-(3-methylmorpholino)pyridin-2-yl)sulfonyl)cyclopropanecarboxamide], in assay [1], the “MTECC24 CFHBEC-Amax %” value amounted to 89% and the EC50 was 0.006 µM. Moreover, in assay [2], the Emax came out at 500% and the EC50 was 1.41 µM.

Take `Cc1ccc(C2(C(F)(F)F)CC2)c(OC2(C(=O)NS(=O)(=O)c3cccc(N4CC(C)(O)C4)n3)CC2)c1` [Example 4-17, N-((6-(3-Hydroxy-3-methylazetidin-1-yl)pyridin-2-yl)sulfonyl)-1-(5-methyl-2-(1-(trifluoromethyl)cyclopropy)phenoxy)cyclopropane-1-carboxamide]: in assay [1], the “MTECC24 CFHBEC-Amax %” value was 55% and the EC50 is 0.076 µM. For the same molecule, in assay [2], the Emax came to 156% and the midpoint of the response, the EC50, lay at 4.03 µM.

As for `O=C(NS(=O)(=O)c1cccc(N2CC[C@H](O)C2)n1)C1(Oc2cc(Cl)ccc2C2CC3(CCC3)C2)CC1` [Example 7-3, (S)-1-(5-chloro-2-(spiro[3.3]heptan-2-yl)phenoxy)-N-((6-(3-hydroxypyrrolidin-1-yl)pyridin-2-yl)sulfonyl)cyclopropanecarboxamide], in assay [1], the “MTECC24 CFHBEC-Amax %” value was determined as 135.1% and the EC50 turned out to be 0.132 µM. Besides, in assay [2], the Emax was 794% and the EC50 was determined as 1.02 µM.

For `Cc1ccc(OC2CCCCCC2)c(OC2(C(=O)NS(=O)(=O)c3cccc(N4CC[C@H](O)C4)n3)CC2)c1` [Example 6-6, (S)-1-(2-(cycloheptyloxy)-5-methylphenoxy)-N-((6-(3-hydroxypyrrolidin-1-yl)pyridin-2-yl)sulfonyl)cyclopropanecarboxamide], in assay [1], the “MTECC24 CFHBEC-Amax %” value was 110.6% and the 50% effective concentration (EC50) came to 0.668 µM. For the same molecule, in assay [2], the Emax came out at 462% and the concentration giving a half-maximal response (EC50) amounted to 2.07 µM.

As for `NC1(C(F)(F)F)CCN(c2cccc(S(=O)(=O)NC(=O)C3(Oc4cc(Cl)ccc4C4CC5(CCC5)C4)CC3)n2)CC1` [Example 7-17, N-((6-(4-amino-4-(trifluoromethyl)piperidin-1-yl)pyridin-2-yl)sulfonyl)-1-(5-chloro-2-(spiro[3.3]heptan-2-yl)phenoxy)cyclopropane-1-carboxamide], in assay [1], the “MTECC24 CFHBEC-Amax %” value stood at 128.4% and the EC50 worked out at 0.057 µM. Further, in assay [2], the Emax came to 377% and a half-maximal effect (EC50) was put at 0.42 µM.

With `Cc1ccc(C2CCC(F)(F)CC2)c(OC2(C(=O)NS(=O)(=O)c3cccc(N[C@H](C)CO)n3)CC2)c1` [Example 3-5], in assay [1], the “MTECC24 CFHBEC-Amax %” value amounted to 64% and the EC50 came to 0.052 µM. In assay [2], the Emax was found to be 363% and the EC50 was 3.97 µM.

For the origin of these results see patent publication US20220033407A1, “N-(pyridin-2-ylsulfonyl)cyclopropanecarboxamide Derivatives and their Use in the Treatment of Disease” (NOVARTIS AG, priority 2018, published 2022).
